{"source": "the supplement of paper PMC10307832", "experiment_in_all_cases": "relative viability (nuclei count vs DMSO), 5 days (fraction); higher = more cells survive", "key": {"Adavosertib + OSI-027": {"compound": "C=CCn1c(=O)c2cnc(Nc3ccc(N4CCN(C)CC4)cc3)nc2n1-c1cccc(C(C)(C)O)n1 [Adavosertib] + COc1cccc2cc(-c3nc([C@H]4CC[C@H](C(=O)O)CC4)n4ncnc(N)c34)[nH]c12 [OSI-027] (partner 0.5 µM)", "summary_of_the_method": "(§1)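 A single step with final 0.05% Triton X-100, 1% formaldehyde and 1 ug/ml Hoechst fixed the cells and stained nuclei 5 days after treatment. Lung cancer cell lines in 1536-well plates had been treated by pin tool the day after seeding with one drug alone or a fixed anchor-drug dose plus five library-drug doses (not always all listed) in √10 steps, and nuclei were counted on 4× images. Relative viability is the ratio of nuclei in treated wells to nuclei in vehicle wells, taken as the median of duplicate plates.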"}, "Adavosertib + Trametinib": {"compound": "C=CCn1c(=O)c2cnc(Nc3ccc(N4CCN(C)CC4)cc3)nc2n1-c1cccc(C(C)(C)O)n1 [Adavosertib] + CC(=O)Nc1cccc(-n2c(=O)n(C3CC3)c(=O)c3c(Nc4ccc(I)cc4F)n(C)c(=O)c(C)c32)c1 [Trametinib] (partner 0.02 µM)", "summary_of_the_method": "as §1"}, "Adavosertib + Foretinib": {"compound": "C=CCn1c(=O)c2cnc(Nc3ccc(N4CCN(C)CC4)cc3)nc2n1-c1cccc(C(C)(C)O)n1 [Adavosertib] + COc1cc2c(Oc3ccc(NC(=O)C4(C(=O)Nc5ccc(F)cc5)CC4)cc3F)ccnc2cc1OCCCN1CCOCC1 [Foretinib] (partner 0.25 µM)", "summary_of_the_method": "as §1"}, "Adavosertib + Tozasertib": {"compound": "C=CCn1c(=O)c2cnc(Nc3ccc(N4CCN(C)CC4)cc3)nc2n1-c1cccc(C(C)(C)O)n1 [Adavosertib] + Cc1cc(Nc2cc(N3CCN(C)CC3)nc(Sc3ccc(NC(=O)C4CC4)cc3)n2)n[nH]1 [Tozasertib] (partner 0.1 µM)", "summary_of_the_method": "as §1"}, "Adavosertib + Navitoclax": {"compound": "C=CCn1c(=O)c2cnc(Nc3ccc(N4CCN(C)CC4)cc3)nc2n1-c1cccc(C(C)(C)O)n1 [Adavosertib] + CC1(C)CCC(c2ccc(Cl)cc2)=C(CN2CCN(c3ccc(C(=O)NS(=O)(=O)c4ccc(N[C@H](CCN5CCOCC5)CSc5ccccc5)c(S(=O)(=O)C(F)(F)F)c4)cc3)CC2)C1 [Navitoclax] (partner 0.5 µM)", "summary_of_the_method": "as §1"}}}
{"cell line": "EMC-BAC-2", "values": [{"measurement": "relative viability", "setting": "Adavosertib + OSI-027; first compound 0.01 µM", "value": 0.375}, {"measurement": "relative viability", "setting": "Adavosertib + OSI-027; first compound 0.03162 µM", "value": 0.412}, {"measurement": "relative viability", "setting": "Adavosertib + OSI-027; first compound 0.1 µM", "value": 0.396}, {"measurement": "relative viability", "setting": "Adavosertib + OSI-027; first compound 0.3162 µM", "value": 0.307}, {"measurement": "relative viability", "setting": "Adavosertib + Trametinib; first compound 0.03162 µM", "value": 0.938}, {"measurement": "relative viability", "setting": "Adavosertib + Trametinib; first compound 0.1 µM", "value": 0.894}, {"measurement": "relative viability", "setting": "Adavosertib + Trametinib; first compound 0.3162 µM", "value": 0.927}, {"measurement": "relative viability", "setting": "Adavosertib + Foretinib; first compound 0.01 µM", "value": 1.08}, {"measurement": "relative viability", "setting": "Adavosertib + Foretinib; first compound 0.03162 µM", "value": 1.01}, {"measurement": "relative viability", "setting": "Adavosertib + Foretinib; first compound 0.1 µM", "value": 0.995}, {"measurement": "relative viability", "setting": "Adavosertib + Foretinib; first compound 0.3162 µM", "value": 0.949}, {"measurement": "relative viability", "setting": "Adavosertib + Tozasertib; first compound 0.01 µM", "value": 0.331}, {"measurement": "relative viability", "setting": "Adavosertib + Tozasertib; first compound 0.03162 µM", "value": 0.318}, {"measurement": "relative viability", "setting": "Adavosertib + Tozasertib; first compound 0.1 µM", "value": 0.261}, {"measurement": "relative viability", "setting": "Adavosertib + Tozasertib; first compound 0.3162 µM", "value": 0.28}, {"measurement": "relative viability", "setting": "Adavosertib + Navitoclax; first compound 0.01 µM", "value": 1.22}, {"measurement": "relative viability", "setting": "Adavosertib + Navitoclax; first compound 0.03162 µM", "value": 1.12}, {"measurement": "relative viability", "setting": "Adavosertib + Navitoclax; first compound 0.1 µM", "value": 1.2}, {"measurement": "relative viability", "setting": "Adavosertib + Navitoclax; first compound 0.3162 µM", "value": 1.19}]}
